Among the test systems are EKVX NSCLC; HOP-62 NSCLC; MDA-MB-435; MOLT-4 leukemia; NCI-H23 lung; NCI-H522 lung; SR leukemia; SW-620 colon.
Holding throughout (assay): NCI anticancer screen, dose series, 48 h

Where “and” joins values, the source holds several entries; their conditions need not be identical. Equal entries are not always repeated.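 All cell lines were grown in 96-well plates and treated with compound for 48 hours. Here, GI50 denotes the concentration required for 50% inhibition of growth. TGI marks complete inhibition of growth.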

Regarding `Nc1ncnc2c1c(C(=O)NO)cn2C1OC(CO)C(O)C1O` (stereo unspecified), the GI50 with EKVX NSCLC was 0.776 µM; with HOP-62 NSCLC, 0.38 µM; in the assay with MDA-MB-435 it was 0.363 µM; in the assay on MOLT-4 leukemia it was 0.306 µM; in the assay with NCI-H23 lung, 0.329 µM; in the assay with NCI-H522 lung, 0.435 µM. Besides, the GI50 with SR leukemia was 0.329 µM; with SW-620 colon, 0.252 µM. The TGI is 15.7 µM with EKVX NSCLC; over 22 µM in the assay with HOP-62 NSCLC; 1.9 µM with MDA-MB-435; 1.66 µM in the assay on MOLT-4 leukemia; 2.89 µM in the assay on NCI-H23 lung; 4.62 µM in the assay on NCI-H522 lung. For the same compound, the results for the TGI in the assay with SR leukemia and in the assay on SW-620 colon were 1.88 µM and over 31.7 µM, respectively.
In the case of `O=[N+]([O-])c1ccc(NN=C2c3ccccc3Cc3ccccc32)c([N+](=O)[O-])c1`, the TGI is over 100 µM with EKVX NSCLC; over 100 µM with HOP-62 NSCLC; 5.8 µM in the assay on MDA-MB-435; over 100 µM with MOLT-4 leukemia; over 100 µM in the assay on NCI-H23 lung; 7.97 µM with NCI-H522 lung. For the same compound, the TGI in the assay on SR leukemia was 11.5 µM; in the assay with SW-620 colon it was over 100 µM.
Take `O=C(O)C1CCCCC1C(=O)Nc1nc2ccccc2[nH]1` (stereo unspecified): the TGI in the assay on EKVX NSCLC, in the assay on HOP-62 NSCLC, in the assay on MDA-MB-435, in the assay on MOLT-4 leukemia, in the assay with NCI-H23 lung and in the assay on NCI-H522 lung was over 100 µM in each case. Also, the TGI in the assay with SR leukemia and in the assay with SW-620 colon was over 100 µM each time.
Regarding `COc1cccc2cc(-c3nc(C4CCC(C(=O)O)CC4)n4ncnc(N)c34)[nH]c12` (stereo unspecified), the GI50 in the assay with EKVX NSCLC was 0.478 µM and 1.03 µM; with HOP-62 NSCLC it was 0.305 µM and 0.338 µM; with MDA-MB-435, 0.288 µM and 0.531 µM; in the assay with MOLT-4 leukemia it was 0.4 µM and 0.767 µM; in the assay with NCI-H23 lung, 0.634 µM and 0.734 µM; with NCI-H522 lung, 0.0712 µM and 0.209 µM. Also, the GI50 in the assay on SR leukemia was 0.295 µM and 0.31 µM; with SW-620 colon, 1.23 µM and 1.49 µM. Besides, the TGI in the assay on EKVX NSCLC was 5.13 µM and > 10 µM; in the assay with HOP-62 NSCLC, 3.64 µM and 4.83 µM; in the assay on MDA-MB-435 it was 3.08 µM and 6.84 µM; with MOLT-4 leukemia, over 40.8 µM; with NCI-H23 lung, 18.4 µM and > 10 µM; in the assay with NCI-H522 lung, 1.92 µM and > 8.47 µM. The TGI with SR leukemia was over 36.3 µM; in the assay on SW-620 colon it was over 100 µM.
Regarding `Cc1cccc2c1ccc1c3occ(C)c3c(=O)oc21`, the GI50 with EKVX NSCLC was 76.6 µM; with HOP-62 NSCLC it was over 100 µM; in the assay with MDA-MB-435 it was over 100 µM; with MOLT-4 leukemia it was 51.5 µM; in the assay with NCI-H23 lung, over 100 µM; in the assay with NCI-H522 lung it was over 100 µM. In addition, the GI50 with SR leukemia and in the assay with SW-620 colon was over 100 µM throughout. Also, the TGI in the assay with EKVX NSCLC, in the assay with HOP-62 NSCLC, in the assay with MDA-MB-435, with MOLT-4 leukemia, in the assay with NCI-H23 lung and in the assay with NCI-H522 lung was over 100 µM each time. Besides, the TGI in the assay on SR leukemia and with SW-620 colon was over 100 µM in each case.
For the compound `CC(C)NCCCCCNc1cc(O)cc2cccnc12`, the GI50 was 22.8 µM in the assay on EKVX NSCLC; over 100 µM in the assay with HOP-62 NSCLC; over 100 µM with MDA-MB-435; over 77.8 µM with MOLT-4 leukemia; over 24.6 µM with NCI-H23 lung; 3.94 µM with NCI-H522 lung. Moreover, the GI50 in the assay with SR leukemia and in the assay with SW-620 colon was over 100 µM in each case. In addition, the TGI in the assay with EKVX NSCLC, in the assay with HOP-62 NSCLC, in the assay with MDA-MB-435, in the assay on MOLT-4 leukemia, with NCI-H23 lung and in the assay with NCI-H522 lung was over 100 µM each time. The TGI with SR leukemia and with SW-620 colon was over 100 µM throughout.
In the case of `C/C=C(\C)C(=O)OC1C2C(C)C(=O)OC2C(O)C(C)C2C=CC(=O)C21C` (stereo unspecified), the TGI in the assay with EKVX NSCLC turned out to be 38 µM; with HOP-62 NSCLC, 40.3 µM; with MDA-MB-435, 26.1 µM; in the assay on MOLT-4 leukemia it was 33.7 µM; with NCI-H23 lung it was 27.1 µM; in the assay with NCI-H522 lung, 12.5 µM. Besides, the TGI with SR leukemia was found to be 18.3 µM; in the assay with SW-620 colon it was 28.7 µM.
As for `CS(=O)(=O)N(CC(=O)O)Cc1ccccc1`, the TGI in the assay with EKVX NSCLC, in the assay on HOP-62 NSCLC, in the assay on MDA-MB-435, with MOLT-4 leukemia, in the assay on NCI-H23 lung and in the assay on NCI-H522 lung was over 100 µM in each case. The TGI in the assay with SR leukemia and in the assay on SW-620 colon was over 100 µM each time.
Turning to `O=C(NCc1cccs1)OC1CC2CCC1C2` (stereo unspecified), the TGI in the assay with EKVX NSCLC, with HOP-62 NSCLC, in the assay on MDA-MB-435, in the assay with MOLT-4 leukemia, with NCI-H23 lung and with NCI-H522 lung was over 100 µM throughout. In addition, the TGI in the assay on SR leukemia and in the assay with SW-620 colon was over 100 µM in each case.
For `COC(=O)c1cc(NC(=O)CN(CCN(CC(=O)O)CC(=O)Nc2ccc(O)c(C(=O)OC)c2)CC(=O)O)ccc1O`, the GI50 with EKVX NSCLC is over 100 µM; with HOP-62 NSCLC it was 42.3 µM; in the assay with MDA-MB-435, over 100 µM; with MOLT-4 leukemia it was 28.5 µM; with NCI-H23 lung, 78.9 µM; in the assay on NCI-H522 lung, 46.4 µM. In addition, the GI50 was 6.06 µM in the assay with SR leukemia and 74.9 µM with SW-620 colon. The TGI in the assay with EKVX NSCLC, in the assay with HOP-62 NSCLC, in the assay on MDA-MB-435, in the assay on MOLT-4 leukemia, in the assay on NCI-H23 lung and with NCI-H522 lung was over 100 µM throughout. Also, the TGI is 48.7 µM in the assay on SR leukemia and over 100 µM in the assay on SW-620 colon.
For `CCCCC/C=C\C/C=C/CCCCCCCCNC(=O)Nc1ccc([N+](=O)[O-])cc1`, the GI50 was 23.8 µM in the assay on EKVX NSCLC; 40.8 µM with HOP-62 NSCLC; 8.21 µM in the assay on MDA-MB-435; 5.68 µM in the assay on MOLT-4 leukemia; 5.19 µM in the assay with NCI-H23 lung; 11.5 µM with NCI-H522 lung. The GI50 with SR leukemia is 10.8 µM; in the assay on SW-620 colon, 5.51 µM. The TGI with EKVX NSCLC was over 100 µM; in the assay with HOP-62 NSCLC it was over 100 µM; with MDA-MB-435, over 100 µM; with MOLT-4 leukemia, 41.4 µM; in the assay on NCI-H23 lung, 72 µM; with NCI-H522 lung it was over 100 µM. The results for the TGI in the assay on SR leukemia and in the assay with SW-620 colon were 37.6 µM and over 100 µM, respectively.
